Assay results as given in patent EP0698347B1, “Food composition containing reuterin” (BIOGAIA BIOLOGICS AB, priority 1987, dated 1988).

Assays:
E. coli [1] = test: Co-culture of E. coli with and without L. reuteri 1063 on various substrates (Table 1); type: cell-based; design: % Inhibition: concentration or dose not given beside the values; details: for E. coli (CFU/ml) after 6 hours: substrate 20 mM (C6, C5) or 40 mM (C3), inoculum 5 x 10^6 CFU per ml E. coli; for % Inhibition: E. coli with versus without L. reuteri 1063 on the substrate, 6 hours
Protocol: (§1) Conditions under which reuterin is produced have been determined. Reuterin is not produced under aerobic conditions (atmospheric oxygen concentration) but under reduced oxygen tension. It is produced when L. reuteri is cultured anaerobically (or semi-anaerobically in still culture) in the MIC assay medium described above containing 20-500 mM glycerol or glyceraldehyde in place of glucose as the major carbon and energy source. […] Twenty other substances, including hexoses, hexitols, pentoses, pentitols, disaccharides and a variety of phosphorylated and non-phosphorylated C3-substances, were tested for their ability to support reuterin production. […] The medium, containing a substrate at 20 mM (C6 and C5 substrates) or 40 mM (C3 substrates) concentrations, was inoculated with 5 x 10^6 colony-forming units (CFU) per ml E. coli with and without L. reuteri. Only glycerol and glyceraldehyde yielded reuterin. Also, réuterin production from glycerol is inhibited when glucose or another growth substrate is included in the production medium. The results shown in Table 2 indicate the percent inhibition in viable count of a 6.7 x 10^7 CFU per ml E. coli inoculum by supernatant fractions of L. reuteri grown on various indicated substrates at 40 mM concentrations.

E. coli [2] = test: Inhibition of E. coli by supernatant fractions of L. reuteri grown on various substrates (Table 2); type: cell-based; details: for % Inhibition: percent inhibition in viable count of 6.7 x 10^7 CFU per ml E. coli inoculum by supernatant fraction, substrate 40 mM; for Growth of E. coli presence of centrifuged culture medium CFU/ml after 6 hours: supernatant fraction of L. reuteri grown on the substrate at 40 mM, inoculum 6.7 x 10^7 CFU per ml E. coli
Protocol: as §1

[3] = Antimicrobial activity of pure commercial preparations; type: cell-based; details: concentrations as high as 0.125M
Source text: Reuterin Is a Product of Glycerol Fermentation. Reuterin is a new product associated with the same type of heterolactic fermentation of glycerol that occurs in other Lactobacillus species. Reuterin can be isolated and identified as a product of glycerol fermentation by L. reuteri using HPLC.

Bacillus megaterium = test: Sensitivity to reuterin (Table 6); type: cell-based
Protocol: (§2) Antimicrobial Activity. Reuterin is a broad-spectrum antimicrobial agent. Reuterin functions as a bacteriocide. […] The indicated concentrations (CFU per ml) of E. coli (solid lines) and L. reuteri 1063 (dashed lines) were inoculated (zero time) into the glycerol casein hydrolysate medium described above (o), the same medium minus citrate (•) and the same medium minus glycerol (X). The co-cultures were incubated semi-anaerobically (still cultures) at 37 degrees C with samples removed at the indicated intervals to determine the numbers (CFU per ml) of E. coli and L. reuteri present. […] All Gram-negative bacterial genera tested thus far (Escherichia, Shigella, Salmonella, Proteus and Pseudomonas) and all Gram positive genera tested (Staphylococcus, Streptococcus, Clostridium, Bacillus, Leuconostoc and Lactobacillus) are sensitive to reuterin. Somewhat higher concentrations of reuterin are required, however, to kill representatives of the latter three genera. A lower eucaryote, the yeast Saccharomyces cerevisiae, is also killed by reuterin. Also shown in this table is the ability of various species tested to stimulate reuterin production by the heterologous procedure.

Clostridium sporogenes = test: Sensitivity to reuterin (Table 6); type: cell-based
Protocol: as §2

[4] = test system: Leuconostoc mesenteroides; test: Sensitivity to reuterin (Table 6); type: cell-based
Protocol: as §2

Pediococcus cerevisiae = test: Sensitivity to reuterin (Table 6); type: cell-based
Protocol: as §2

Saccharomyces cerevisiae = test: Sensitivity to reuterin (Table 6); type: cell-based
Protocol: as §2

L. reuteri = test: Sensitivity of L. reuteri itself to reuterin; type: cell-based
Protocol: as §2

Tryoanosoma cruzi = test: In vitro growth of the protozoan parasite; type: cell-based; details: final concentration of approximately 20 MIC units ml^-1
E. coli [5] = test: Bacteriocidal activity in E. coli / L. reuteri 1063 co-culture in glycerol medium (Figure 5); type: cell-based; details: glycerol present; co-culture with L. reuteri 1063, still culture, 37 degrees C; few hours after first 3-4 hours
Protocol: as §2

Escherichia coli = test: Reuterin added to phage-infected bacterial cultures: host CFUs (Figure 13); type: cell-based; details: 10 units of reuterin; four hours; compared to the reuterin-free control culture
Protocol: (§3) Antiviral Activity. Reuterin is also effective in preventing virus replication. […] It appears from preliminary results with ^14C-labeled glycerol that 4 ug of reuterin in 0.5 ml solution is about the equivalent of 1 unit of reuterin. After four hours, the number of colony-forming units (CFUs) of the host cell and the number of plaque-forming units (PFUs) of the viruses were assayed using standard microbiological techniques. With no reuterin added, the number of microbial cells had increased about 100-fold in the four-hour period. With E. coli, addition of 10 units of reuterin caused an approximate 100-fold decrease in the number of cells and more than a 1000-fold decrease in the number of PFUs of the lambda phage as compared to the reuterin-free control culture after incubation for four hours.

Lambda phage = test: Reuterin added to phage-infected bacterial cultures: virus PFUs (Figure 13); type: cell-based; details: 10 units of reuterin; four hours; compared to the reuterin-free control culture
Protocol: as §3

phage 8014-B2 = test: Reuterin added to phage-infected bacterial cultures: virus PFUs versus host CFUs (Figure 13); type: cell-based, Lactobacillus plantarum; details: reuterin amounts at or greater than 25 units; four hours
Protocol: as §3

ground beef microflora = test: Food preservation: ground beef microflora (Figure 14); details: 50 and 100 units per g; stored at 4 degrees C; through the 6-day test period
Protocol: Reuterin is an effective food preservative. Ground beef purchased from a local supermarket was divided into 4 portions. One portion was untreated, the others were treated with 10, 50 and 100 units of reuterin per gram of the meat. All samples were stored at 4 degrees C with samples taken at indicated days for bacteriological analysis.
Beef samples were removed and diluted 1:10 (1 g beef: 9 ml sterile H2O). Subsequent decimal dilutions were made as needed and samples were plated onto Difco Nutrient Agar. These samples were incubated at 27°C for 24 hours and counted as colony forming units per gram ground beef (CFU/g). […] With the higher levels of reuterin (50 and 100 units per g) the indigenous population of bacteria was reduced and remained greater than 4 log units lower than the control sample through the 6-day test period.

E. coli K12 [6] = test: Food preservation: E. coli-inoculated ground beef (Figure 15); details: 75 units (U) of reuterin per gram of beef; 4°C; 9-day incubation period
Protocol: Ground beef purchased from a local supermarket was thoroughly inoculated and mixed with approximately 10^5CFU/ml of E. coli K12 cells. After mixing, the material was divided into 2 portions. One portion was an untreated control (no reuterin), the other portion received 75 units (U) of reuterin per gram of beef. Samples were stored at 4°C with portions removed at indicated times for bacteriological analysis. In this experiment the determination of viable cells (CFU/g beef) was conducted as described for Figure 14 except that Difco McConkey's Agar (relatively specific for coliform-like bacteria) was used.

[7] = Characterizations of reuterin in crude preparations; type: physicochemical
E. coli K12 [8] = test: Minimum Inhibitory Concentration (MIC) procedure; type: cell-based; details: chemically synthesized as described by Hall, compared with biologically synthesized reuterin
Protocol: Reuterin. When Lactobacillus reuteri cells capable of producing reuterin are placed under certain favorable conditions, reuterin is produced. A number of assays have been developed to detect and quantitate reuterin. A standard Minimum Inhibitory Concentration (MIC) procedure was adopted to detect reuterin and to elucidate factors affecting its production. E. coli K12 is used as the susceptible test microorganism and the assay is carried-out as follows. Overnight cultures of E. coli are harvested, washed twice with sterile 0.05 sodium phosphate buffer (pH 7.5), suspended in this buffer and adjusted to 60 percent transmission (A 420 nm) using a Spectronic 70 instrument. This suspension is diluted 1:100 and 0.1 ml aliquots are used to inoculate 1.0 ml of the MIC assay medium which contains (g/L): vitamin-free casein hydrolysate, 3; ammonium citrate, 1.9; citric acid, 0.63; KH2PO4, 12.6; MgSO4 (hepta-hydrate), 0.2; pH adjusted to 7.0 and 20 mM glucose added after sterilization. […] Relative reuterin concentrations (units reuterin) are then calculated as the reciprocal of the sample dilution preceding the dilution allowing visible growth of the indicator cells. Another assay relating MIC values to reuterin peak heights as determined by HPLC analyses (described below) has also been developed.

Compound	E. coli (CFU/ml) after 6 hours (E. coli [1]; Addition of L. reuteri 1063: +)	E. coli (CFU/ml) after 6 hours (E. coli [1]; Addition of L. reuteri 1063: -)	% Inhibition (E. coli [1]) [%]	% Inhibition (E. coli [2]) [%]	Growth of E. coli presence of centrifuged culture medium CFU/ml after 6 hours (E. coli [2])	also measured
O=C(CO)[C@@H](O)[C@H](O)[C@H](O)CO [Fructose]	3.0x10^8 CFU/ml	2.1x10^8 CFU/ml	0			
O=P(O)(O)OC(CO)CO [β-Glycerol-P]	6.5x10^6 CFU/ml	5.1x10^6 CFU/ml	0	0	3.2x10^9 CFU/ml	
O=C(CO)COP(=O)(O)O [Dihydroxyacetone-P]	4.1x10^6 CFU/ml	3.4x10^6 CFU/ml	0	0	3.7x10^9 CFU/ml	
OC[C@@H](O)[C@@H](O)[C@H](O)[C@H](O)CO [Mannitol]	2.7x10^8 CFU/ml	2.3x10^8 CFU/ml	0			
O=C(O)CCO [β-hydroxypropionic acid]						antimicrobial activity [3]: essentially devoid of antimicrobial activity
Phosphoglycerate				0	3.3x10^9 CFU/ml	
O=CC(O)CO (centres unmarked) [Glyceraldehyde]	3.2x10^4 CFU/ml	2.8x10^6 CFU/ml	99	98.9	6.1x10^5 CFU/ml	
OCCC1OCCC(O)O1 (centres unmarked) [reuterin, 4-hydroxy-2-2'-hydroxyethyl-1:3-dioxan]						Sensitivity to reuterin (Bacillus megaterium): S; Sensitivity to reuterin (Clostridium sporogenes): S; Sensitivity to reuterin [4]: S; Sensitivity to reuterin (Pediococcus cerevisiae): S; Sensitivity to reuterin (Saccharomyces cerevisiae): S; concentrations at which L. reuteri itself is sensitive to reuterin (L. reuteri): ≥ 32 MIC units; in vitro growth of the protozoan parasite (Tryoanosoma cruzi): inhibits in vitro growth; log decrease in viable E. coli cells (E. coli [5]): 7-8 log; decrease in the number of cells (Escherichia coli): about 100 fold; decrease in the number of PFUs of the lambda phage (Lambda phage): > 1000 fold; Lactobacillus CFU and PFU decreases due to reuterin (phage 8014-B2): even greater declines in the PFUs than in the CFUs; indigenous population of bacteria lower than the control sample (ground beef microflora): greater than 4 log units; viable cells (CFU/g beef) on McConkey's Agar (E. coli K12 [6]): reduced the initial population of bacteria and kept these numbers low; stability to heat ([7]; 100 degrees C for 10 minutes, particularly at pH values of 9.0 or higher): labile to heat; resistance to nucleases and proteases ([7]; crude preparations): resistant to nucleases and proteases; solubility in water ([7]; crude preparations): highly soluble in water; MIC value (E. coli K12 [8]): idential MIC value as the biologically synthesized reuterin
